{
  "source": "patent EP1228058B1",
  "about": "“BENZOPYRANYL GUANIDINE DERIVATIVES, PROCESS FOR PREPARATION THEREOF, AND PHARMACEUTICAL COMPOSITIONS CONTAINING THEM” (Dongbu Hannong Chemical Co., Ltd., priority 1999, dated 2001)",
  "key": {"[1]": {"test_system": "ischemic heart models of rats", "assay": "Heart protective (anti-ischemic) activity in ischemic heart models of anesthetized rats", "format": "in vivo", "conditions": "45 min occlusion, 90 min reperfusion", "description": "Male rats (350-450 g, obtained from the Experimental Animal Team of the Korea Research Institute of Chemical Technology) were anesthetized by the intraperitoneal injection of pentobarbital at a dose of 75 mg/kg. After trachetomy, the rats were rendered to respire artificially at a rate of 60/min with a stroke volume of 10 ml/kg. Cannulars were inserted into the fermoral vein and the fermoral artery and used for drug administration and blood pressure measurement, respectively.\nIn the ischemic myocardium damage models, the body temperature has an important influence on the results. To avoid the change in the body temperature, a body temperature measuring probe was inserted into the rectum of each rat and the body temperature was constantly kept at 37 °C with the aid of a homeothermic blanket control unit.\nAfterwards, during testing, a continuous measurement was made of the mean arterial blood pressures and heart rates from the rats. For the measurement of the blood pressure, a pressure transducer, such as that manufactured by Grass Ins., MA, U.S.A., identified as Model Statham P23XL, was used. The heart rate was measured by a tachometer, such as that manufactured by Gould Inc., OH, U.S.A., identified as Biotachometer. In addition, all of the changes occurring were continuously recorded through the Gould 2000 chart recorder, manufactured by Gould Inc.\nThe left coronary artery was occluded according to the Selye H. method as follows. The rats underwent a left thoracotomy operation for partial opening of the chest and the right-side chest was pressurized by the middle finger of the left hand to push the heart out. Immediately after the left anterior descending coronary artery hereinafter referred to as (LAD) was carefully stitched using a suture needle with 5-0 silk ligature, the heart was then repositioned in the thoracic cavity while both ends of the ligature were situated outside. The opposite ligature ends were passed through a PE tube (PE100, 2.5 cm) and allowed to stand loose for 20 min for stabilization. Via the cannula inserted into the femoral vein, vehicles or drugs were administered into the rats which were rendered to stand for 30 min in order to sufficiently elicit the efficacies of the drugs. BMS-180448 was used as a control drug and the i.v.administration dose was 0.3 mg/kg for all test drugs of interest and the control drug.\nNext, the PE tube which had the doubled strands of the ligature passed therethrough was pushed toward the heart and then, set upright by tightly pulling end regions of the ligature with a hemostatic pincette while pressing the coronary artery. The PE tube was allowed to stand for 45 min for the occlusion of the coronary artery, followed by the removal of the hemostatic pincette and then, by the reperfusion for 90 min.\nAfter the reocclusion of the coronary artery in accordance with the above procedure, the rats were administered with 2 ml of a 1% Evans blue through an intravenous route. Subsequently, an excess of pentobarbital was intravenously injected to kill the rats, after which the heart was removed and then, deprived of the right ventricle and both atria. The left ventricle was cut horizontally to the heart apex into 5 or 6 slices which were weighed. From the surface of each slice, images were input with the aid of a Hi-scope into a computer installed with an image analyzing program (Image Pro Plus). From the images input into the computer, the area of the normal blood stream tissue region which appeared blue in a computer monitor and the area which appeared colorless were measured. The percentage of the colorless area to the total area of each slice was calculated and multiplied by the weight of each slice to determine the area at risk (AAR) of each slice. […]"}, "[2]": {"test_system": "ischemic heart models of beagle dogs", "assay": "Heart protective (anti-ischemic) activity in ischemic heart models of anesthetized beagle dogs", "format": "in vivo", "conditions": "total dose 2 mg/kg infused i.v. over 40 min, 90 min occlusion, 5 h reperfusion", "description": "In order to determine whether the compounds of the formula 1 are protective for the ischemic hearts of larger animals, experiments determining the anti-ischemic effects of the compounds on beagle dogs were conducted as follows. The experiments on beagle dogs followed the method of Grover et al.' (G. J. Grover et al., J. Cardiovasc. Pharmacol. 25, 40 (1995)).\nAfter being anesthetized by an intravenous injection of pentobarbital at a dose of 35 mg/kg, male beagle dogs (8-12 kg) were further infused with pentobarbital sodium at a dose of 3-4 mg/kg through the right cephalic vein throughout the experiments, so as to keep the anesthesia constant. […] The heart rate was measured by a tachometer, such as that manufactured by Gould Inc., OH, U.S.A., identified as Biotachometer. In addition, all of the changes occurring during the experiment were continuously recorded through the Gould 2000 chart recorder, manufactured by Gould Inc.\nThe fifth intercostal space was incised to open the thorax and the LAD was separated from its surrounding tissues. […] The LAD part upstream of the silk ligature was isolated from adjacent tissues and the blood flow was measured quantitatively. […] Using polygraph such as Grass Model 7E, the electrocardiogram was measured and read (Lead II). […]"}, "rat aorta": {"test_system": "rat aorta", "assay": "Vasodilation effects on isolated blood vessels of rats (methoxamine-constricted aortic rings)", "format": "cell-based", "conditions": "isolated rat aorta constricted with methoxamine (3 uM); read-out: Vasodilation Activity (in Vitro, rat aorta) (IC50)", "source_text": "Male Sprague-Dawly rats (350-450 g, obtained from the Experimental Animal Team of the Korea Research Institute of Chemical Technology) were knocked unconscious by hitting the occipital region, sacrificed by cervical dislocation, and underwent thoracotomy. After being quickly removed, the thoracic aorta was deprived of the adipose tissue and cut into aortic rings of 3 mm width. The aorta was lightly rubbed with a modified Krebs Henseleit buffer (Physiological Salt Solution, PSS) soaked cotton club to remove the inner epithelial layer therefrom. While being suspended in an organ bath containing a physiological buffer, the vascular tissue was allowed to equilibrate under a resting tension of 2 g and then, stand for 1 hour at 37 °C for stabilization with a supply of a carbogen consisting of 95% O2-5% CO2.\nThereafter, the vascular tissue was constricted with 10^-5 M phenylephrine and washed several times with PSS and this procedure was repeated again to ensure the stable reacivity of vascular smooth muscle to repetitive constriction/dilatation.\nIn addition, 3x10^-6 M methoxamine was used to induce an intensive constriction in the vascular smooth muscle. When the vasoconstriction induced by the methoxamine reached and maintained a maximum, test compounds and controls were cumulatively added to the organ baths in concentrations of 1, 3, 10 and 30 uM so as to induce vasodilatation. As for the controls, they were Cromakalim and BMS-180448 (the compounds of the chemical formula 2), both known to be the first generation KATP activator with potent vasodilatation and cardioprotection effects.\nFollowing the addition of the drugs, the change in the maximal constriction induced by methoxamine was calculated to plot a concentration-dilation response curve. Through a linear regression analysis, IC50, the drug concentration at which the vascular tissue is 50% dilated, was obtained for each drug."}, "[3]": {"test_system": "Rat aortic smooth muscle cells", "assay": "Inhibition of proliferation of vascular smooth muscle cells ([3H]-thymidine incorporation into DNA)", "format": "cell-based", "conditions": "[^3H]-thymidine into DNA; angiotensin II (10^-7M) stimulated = 100; 72 hr", "description": "Inhibitory effects on cell proliferation was evaluated by measurement of incorporation of [^3H]-thymidine into DNA. Rat aortic smooth muscle cells were grown in 24 well plate for 3 days to near confluence in DMEM containing 10% FBS, then DMEM containing FBS was washed out. Cells were cultured again in DMEM without serum for 48 hr to be quiescent. […] During the last 4 hours of incubation, [^3H]-thymidine (1 uCi/ml) was added. […] The samples were filtered through glass microfiber filter (GF/B. Whatmann) under vacuum. After washing the filters 3 times with 2 ml of an aqueous solution of 5% TCA, the radioactivity incorporated into DNA was counted by Liquid Scintillation Counter (Packard, TRI-CARB, 2100TR), then calculated incorporation % of [^3H]-thymidine."}, "[4]": {"assay": "Acute oral toxicity test in rats", "conditions": "rat, in vivo, single oral dose in 0.5% methyl cellulose, read-out: lethal dose (LD50) for oral administration", "how_it_was_run": "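Six-week-old SPF SD rats, two per group, received a single oral dose of 1 g/kg suspended in 0.5% methyl cellulose (10 ml/kg). Survivors at the end of observation underwent haematology, serum chemistry, necropsy and histopathology of vital organs with macroscopic lesions.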"}, "diabetic rats [5]": {"test_system": "diabetic rats", "assay": "Effects on MNCV (motor nerve conduction velocity) in diabetic rats", "format": "in vivo", "conditions": "MNCV; 100 mg/Kg, orally once a day, diabetic rats", "description": "Diabetes was induced with i.p. (intra peritoneum) injection of streptozocin (65 mg/Kg) in rats, then test compounds dissolved in 2 ml of media (physiological saline: ethanol: tween 80 = 8:1:1), were orally administered once a day. Rats were anesthetized with halothane, then the sciatic nerve was exposed to measure MNCV. The nerve was stimulated at two points. The first stimulus electrode was inserted at proximal end, and second stimulating electrode was inserted at the sciatic notch. The coaxial needle electrode was inserted into interdigital muscle, then the muscle action potential induced by two point stimulation. The conduction velocity was calculated by dividing the distance between two stimulus points by the latency difference. Lipoic acid (100 mg/Kg) was used in comparison with the compound of formula 1 in recovery of impaired MNCV in diabetic rats. The recovery (%) of MNCV was calculated according to the following mathematical formula 4. [Mathematical formula 4] Recovery(%) =(MNCV of treated group - MNCV of diabetic rats)/(MNCV of normal control-MNCV of diabetic rats)x100 [formula]"}, "diabetic rats [6]": {"test_system": "diabetic rats", "assay": "Nociceptive test (hot plate test) in diabetic rats", "format": "in vivo", "conditions": "50 °C hot plate", "description": "Effects on nociceptive responses of test compounds in rats were examined using hot plate. The same methods were applied for the induction of diabetes and treatment of test compound in rats. Rats were placed onto 50 °C hot plate, then latencies of nociceptive action such as licking were determined. The recovery (%) of nociceptive responses in diabetic rats was calculated according to the following mathematical […]. [Mathematical formula 5] Recovery(%) =(Response in treated group - Response in diabetic control)/(Response in normal control-Response in diabetic control)x100 [formula]"}},
  "data": [
    {"compound": "CC1(C)Oc2ccc(C#N)cc2[C@@H](NC(=NC#N)Nc2ccc(Cl)cc2)[C@@H]1O", "note": "[BMS-180448, reference compound]", "values": [
      {"measurement": "Anti-ischemic Activity (in vivo, rats) (0.3 mg/kg i.v.) IZ/AAR (%)", "setting": "[1]", "value": 39.14, "unit": "%"},
      {"measurement": "Anti-ischemic Activity (in vivo, dogs) (2 mg/kg/40 i.v.) min,i.v.) IZ/AAR (%)", "setting": "[2]", "value": 38.02, "unit": "%"},
      {"measurement": "IC50", "setting": "rat aorta", "value": 1380, "unit": "nM"}
    ]},
    {"compound": "COC(OC)[C@]1(C)Oc2ccc([N+](=O)[O-])cc2[C@H](NC(=NC#N)NCc2ccccc2)[C@H]1O", "note": "[Example 22, (2R, 3R, 4S)-N''-cyano-N (6-nitro-3,4-dihydro-3-hydroxy-2-methyl-2-dimethoxy methyl-2H-benzopyran-4-yl)-N'-benzylguanidine]", "values": [
      {"measurement": "Incorporation %", "setting": "[3]", "value": 64.0, "unit": "%"},
      {"measurement": "LD50", "setting": "[4]", "value": "> 1000", "unit": "mg/kg"}
    ]},
    {"compound": "O=C(O)CCCCC1CCSS1", "note": "(centres unmarked) [Lipoic acid, reference compound]", "values": [
      {"measurement": "Recovery (%)", "setting": "diabetic rats [5]", "value": 136.6, "unit": "%"},
      {"measurement": "Nociceptive response", "setting": "diabetic rats [6]; latency of licking", "value": 4.371, "unit": "s"},
      {"measurement": "Recovery (%)", "setting": "diabetic rats [6]; nociceptive responses", "value": 60.2, "unit": "%"}
    ]}
  ]
}
